Measured values as given in US7067653B2, “Porphyrin Based neuton capture agents for cancer therapy” (The Regents of the University of California, priority 2000, dated 2006).

What was measured:
tumor = settings: drugs currently in BNCT clinical trials; cited from earlier work
9L cells = assay: Dark toxicity assay in rat 9L gliosarcoma cells; format: cell-based; settings: exposure for 24 hours
Protocol: (§1) In vitro studies using rat 9L gliosarcoma cells, mouse B16 melanoma cells and human U-373MG glioblastoma cells have been performed.
(§2) Human glioblastoma U373 MG and mouse melanoma B16 cells were obtained from ATCC. The rat gliosarcoma line was kindly provided by the UCSF Brain Tumor Research Group. All cells were maintained in log phase monolayer cultures with RPMI 1640 supplemented with 10% fetal bovine and 2 mM glutamine.
(§3) Cells were seeded in 96-well culture plates, allowed to settle and attach for 24–48 hours, and then triplicate wells were exposed to two fold serial dilutions of test compounds at concentrations up to 250 μM. Compounds 4, 6, 10, and the Zn(II) complex of 10 in crystalline form were carefully weighed and dissolved in 100% DMSO to prepare stock solutions; subsequent dilutions were done directly into the culture medium just prior to administration to cells. After short term (2 hours) or long term (24–48 hours) exposure, cells were washed and wells refilled with fresh culture medium. For dark toxicity trials cells were allowed to proliferate for an additional 48–72 hours. For phototoxicity trials, washed cells were irradiated for 10 minutes with broad spectrum (600–700 nm) red light and then returned to an incubator for 48–72 hours.

U-373 MG cells = assay: Dark toxicity assay in human glioblastoma U-373 MG cells; format: cell-based; settings: exposure for 24 hours
Protocol: as §1, §2, §3

[1] = system: 9L, U-373 MG and B16 cells; assay: Phototoxicity assay, broad spectrum (600–700 nm) red light; format: cell-based; settings: irradiation with broad spectrum light 10 minutes
Protocol: as §2, §3
As observed for the dark toxicity experiments, the corresponding Zn(II) complex […] was about 20-fold less phototoxic. […] As with dark toxicity, B16 cells were more resistant that the other two cell types.

Rat 9L tumor cells = assay: Intracellular localization by confocal fluorescence microscopy, 9L cells; format: cell-based; settings: 2 μM, 6 or 24 hours
Protocol: (§4) Confocal fluorescence microscopy was used to examine the intracellular localization of nido-carboranylporphyrin 4 in live cells. Rat 9L tumor cells and human normal keratinocyte line HaCaT were used in these studies. HaCaT cells were included in these particular experiments because they adhere and spread nicely on glass cover slips, thus facilitating the imaging process. Cells exposed to 2 μM concentration of porphyrin 4 for either 6 or 24 hours were examined at a magnification of 200× for intracellular fluorescence using excitation/emission wavelengths optimized for this type of compound. […] In both cases, 100% of the cells were labeled and the cells exposed to drug for 24 hours were slightly brighter than those exposed for 6 hours. […] No fluorescent signal was detectable in the plasma membranes of isolated individual cells nor in the intercellular junctions of confluent cells.

[2] = system: human normal keratinocyte line HaCaT; assay: Intracellular localization by confocal fluorescence microscopy, HaCaT cells; format: cell-based; settings: 2 μM, 6 or 24 hours
Protocol: as §4

Compound: N[C@@H](Cc1ccc(B(O)O)cc1)C(=O)O [BPA, L-4-dihydroxy-borylphenylalanine]
- tumor selectivity compared with the carboranylporphyrins (tumor to normal brain ratio) (tumor): lower selectivities

Compound: disodium mercapto-closo-dodecaborate [BSH]
- tumor selectivity compared with the carboranylporphyrins (tumor to normal brain ratio) (tumor): lower selectivities

Compound: meso-tetra[3-(1-methyl-nido-carboranyl)methylphenyl]porphyrin tetrapotassium salt [Compound 10]
- IC50 (9L cells): ~150 µM
- IC50 (U-373 MG cells): ~150 µM

Compound: meso-tetra[4-(1-methyl-nido-carboranyl)methylphenyl]porphyrin tetrapotassium salt [Compound 4]
- IC50 (9L cells): ~150 µM
- IC50 (U-373 MG cells): ~150 µM
- IC50 ([1]; 2 hours exposure): 50 µM
- IC50 ([1]; 24 hours exposure): 1.5 µM
- cells labeled (Rat 9L tumor cells; 9L cells): 100%
- intracellular localization (fluorescence) (Rat 9L tumor cells; live 9L cells): predominantly perinuclear
- cells labeled ([2]; HaCaT cells): 100%
- intracellular localization (fluorescence) ([2]; live HaCaT cells): predominantly perinuclear
